Results from publication PMC10900488, “Synthesis and Evaluation of (Bis)benzyltetrahydroisoquinoline Alkaloids as Antiparasitic Agents” (JACS Au, 2024).

Assays:
[1] = system: L. infantum promastigotes; experiment: Antipromastigote assay (L. infantum), MTT colorimetric; type: cell-based, Leishmania (L.) infantum; conditions: Leishmania infantum; ± SD; MTT, 48 h; read-out: L. infantum IC50 promastigotes
Protocol: (§1) Table 1 depicts the antileishmanial (L. infantum) activity evaluation performed against both the amastigote form (evaluated microscopically using an ex vivo intracellular model of mice macrophages) and the promastigote one (using an MTT colorimetric method).[32],[33] The cytotoxicity was evaluated against NCTC cells using an MTT colorimetric method and the selectivity index was determined using the ratio between the CC50 values (NCTC cells) and the IC50 values (amastigotes).[32] […] With respect to the substituents on the C ring, larger, hydrophobic groups conferred greater bioactivity (e.g., 9b–d), whereas small, hydrophilic groups such as a hydroxyl group afford modest to poor bioactivity.
(§2) Leishmania (L.) infantum (MHOM/BR/1972/LD) amastigotes were obtained from golden hamsters (Mesocricetus auratus) spleens following 60-70 days of infection via differential centrifugation. The Stauber method was used to determine the number of parasites.12 […]
Biological activity assays
Antipromastigote Assay (L. infantum)
L. infantum promastigotes (1 × 10^6 cells/well) were added to a 96-well plates. Treatment of the cells with selected compounds (serially diluted 0.14 to 200 μM) was performed in M199 medium supplemented with 0.25% hemin and 10% fetal bovine serum for 48 h at 24 °C. The MTT colorimetric assay was used to determine the activity (IC50) of the compounds. Miltefosine was used as a standard drug and untreated promastigotes were used as a negative control. The half inhibitory concentration (IC50) was determined from a sigmoidal regression of the concentration-response curves generated in GraphPadPrism7. […]

[2] = system: L. infantum amastigotes; experiment: Antiamastigote assay (L. infantum), ex vivo intracellular model of mice macrophages, microscopy; type: cell-based, Leishmania (L.) infantum; conditions: Leishmania infantum, Peritoneal macrophage, 96 h, ± SD, intracellular, peritoneal macrophages, read-out: L. infantum IC50 amastigotes
Protocol: as §1, §2
Peritoneal macrophages were obtained via washing the peritoneal cavity of BALB/c mice with 10% foetal calf serum supplemented RPMI-1640 medium (pH 7.2). The macrophages were maintained in a humidified incubator at 37 °C and with 5% CO2.
(§3) Biological activity assays […]
Antiamastigote Assay (L. infantum)
Peritoneal macrophages (1 × 10^5/well) were added to a 16-well slide chambers (NUNC) and incubated with 5% CO2 at 37 °C. The cells were subsequently infected with L. infantum amastigotes (10:1 amastigotes/macrophage) for 24 h. Treatment of the cells with selected compounds (serially diluted 1.2 to 150 μM) was performed in a humidified incubator for 96 h at 37 °C and with 5% CO2. Untreated cells were used as a negative control and miltefosine was used as a standard drug. The treated cells were fixed on slides with methanol, stained with Giemsa and observed under a light microscope.13 The infection index was used in order to determine the half inhibitory concentration (IC50) (no. infected macrophages × no. amastigotes / total no. […]

[3] = system: T. cruzi trypomastigotes; experiment: Antitrypomastigote assay (T. cruzi), resazurin; type: cell-based, Trypanosoma (T.) cruzi; conditions: Trypanosoma cruzi, 24 h, ± SD, resazurin, read-out: T. cruzi IC50 trypomastigotes
Protocol: T. cruzi also assumes several cell morphologies during its lifecycle, which differ between the insect vector and mammalian host. In the latter environment, the parasite transitions between extracellular bloodstream trypomastigotes and intracellular amastigotes; both forms are clinically relevant, particularly during the acute stage of Chagas disease.[34] In this work, antitrypanosomal activity was tested against both the amastigote form (evaluated microscopically using an ex vivo intracellular model using mice macrophages) and the trypomastigote form (using the resazurin in vitro assay).[33],[35] […] In silico predictions of pharmacokinetic profiles were carried out using the SwissADME webtool (see the Supporting Information for details).[36] […]
[…] Cultivation was performed in 2% fetal calf serum supplemented RPMI-1640 medium.
The trypomastigotes were maintained in a humidified incubator at 37 °C and with 5% CO2. […]
as §3
The half inhibitory concentration (IC50) was determined from a sigmoidal regression of the concentration-response curves generated in GraphPadPrism7. […]
Treatment of the cells with selected compounds (serially diluted 1.2 to 150 μM) was performed in a humidified incubator in RPMI 1640 medium for 24 h at 37 °C and with 5% CO2. Resazurin (0.011% in PBS) was added subsequently to verify parasite viability. Benznidazole was used as a standard drug. The optical density was determined at 570 nm using the FilterMax F5 (Molecular Devices). […]

[4] = system: L. mexicana promastigotes; experiment: Growth studies, 24 h promastigote culture; type: cell-based, Leishmania (L.) mexicana
Protocol: Preliminary investigations into the mechanism of action for compounds (S)-9a, (S)-9b and (S,R)-11 were carried out using L. mexicana promastigotes. Light microscopy-based techniques were employed to further explore compound activity in a different, related Leishmania species. […] A solvent-only control using 0.1% (v/v) DMSO led to no significant effects. Cell cultures were examined by light microscopy to identify any morphological changes resulting from compound treatment (Figure 2B). […] Cells treated with the BI and BBI compounds develop a changed morphology with a spherical cell body or shortened flagellum. This effect is observed in 25% of the population for compound (S)-9a, to a greater extent (66%) for (S)-9b, and 27% for compound (S,R)-11. An abnormal number and position of Ks and Ns were often observed, with Ks and Ns sometimes less well-defined by Hoechst 33342 staining.
NCTC cells (6 × 10^4/well) were added to a 96-well plate. Treatments of the cells with selected compounds (serially diluted 1.5 to 200 μM) was performed in a humidified incubator for 96 h at 37 °C and with 5% CO2.
The MTT colorimetric method was used to determine the 50% cytotoxic concentration (CC50) and the selectivity index (CC50 against NCTC cells/IC50 against amastigotes).15 […]
[…] […] Statistical significance was derived from a two-tailed T-test.
The Graph Pad Prism 5 software was used to perform sigmoid dose-response curves for the determination of […]
[…] At 6 h and 24 h post-treatment, a 1 mL aliquot was taken for imaging. The cell cycle experiment was preformed twice independently.
Generation of mNG::RAD51 tagged cell line
The single-stranded DNA-binding protein RAD51, associated with DNA Repair, LmxM.28.0550 was tagged with endogenous fluorescent protein mNeonGreen (mNG) at the N-terminus. […]
Primers for constructs and sgRNA were designed using LeishGEdit (http://www.leishGEdit.net).
PCR was at 94 °C for 5 min, followed by 35 cycles at 94 °C (15 sec), 65 °C (15 sec), 72 °C (2 min) then finally 72 °C (1 min). […]

In the case of `COc1cc2c(cc1OC)[C@H](Cc1ccc(Br)cc1)N(C)CC2` [(S)-9a], the IC50 [1] is reported as 18.4 ± 2.1 µM, the IC50 [2] is reported as 13.3 ± 0.9 µM and the IC50 [3] is reported as 14.4 ± 5.5 µM. The “concentration sufficient to inhibit growth over 24 h” value [4] was 50 µM.

`COc1cc2c(cc1OC)[C@H](Cc1ccc(OC)c(OCc3ccccc3)c1)N(C)CC2` [(S)-9b] was tested, and the IC50 [1] was 8.6 ± 0.8 µM, the IC50 [2] was 26.7 ± 2 µM and the IC50 [3] was 57.7 ± 2.3 µM. The “concentration sufficient to inhibit growth over 24 h” value [4] was 50 µM.

`COc1cc2c(cc1OC)[C@@H](Cc1ccc(Oc3cc(C[C@H]4c5cc(OC)c(OC)cc5CCN4C)ccc3OC)cc1)N(C)CC2` [(S,R)-11, (−)-O,O′-dimethylgrisabine] gave an IC50 [1] of 0.8 ± 0.01 µM, an IC50 [2] greater than 150 µM and an IC50 [3] of 2.6 ± 2.9 µM. For the same molecule, the “potency in growth inhibition relative to (S)-9a and (S)-9b” value [4] was 10 fold.
